In patent US11479805B2, “Combinatorial single molecule analysis of chromatin” (The General Hospital Corporation, priority 2015, dated 2022):

What was measured:
nucleosomes from ESCs = test: Time-lapse TIRF imaging of antibody binding and dissociation on nucleosomes from ESCs; set-up: species or system Mouse; conditions: images every 15 minutes, FIG. 7B-C
Procedure: FIG. 7A-7F. Time-lapse images detect repeated antibody binding and dissociation events. (A) Mono-nucleosomes were extracted from HEK293 cells, labeled and distributed on the surface as described in FIG. 1A. […] Shown are images taken at 15, 30 and 45 minutes after addition of antibodies. (B-F) Nucleosomes from ESCs were distributed on the surface and incubated with antibodies targeting H3K27me3 (B, D, F) or H3K4me3 (C, E). Time lapse images were taken every 15 minutes. A total of 10,000 individual binding events were analyzed for each antibody. (B-C) Number of binding events detected at each time point. Equilibrium of binding and dissociation of antibodies is achieved at 45 minutes for H3K27me3, and 75 minutes for H3K4me3. Later images show mild reduction in signal due to photo bleaching. (D-E) For each nucleosome, the number of binding events by antibody was calculated in a total of 8 images taken during the time course of the experiment (30-135 minutes). Graph depicts a histogram of the number of images in which each nucleosome is bound by the antibody. Due to repeated binding and dissociation events, most of the nucleosomes are bound more than once. […]
(§1) All experiments were performed on a total internal reflection (TIRF) microscope with two lasers, 532 nm/75 mW and 640 nm/40 mW, for fluorescence excitation (Compass 215M, Cube-40C, Coherent). […]

[1] = tested on: control peptides and singly modified peptides; test: Antibody specificity peptide array (dot-blot assay); assay type: binding; conditions: FIG. 9
Procedure: FIG. 9A-9B. Peptide array confirms high antibody specificity (A-B) Reactivity of H3K27me3 antibody (A) or H3K4me3 antibody (B) with control peptides and singly modified peptides.
To test for antibody specificity, Applicants used a peptide array with unlabeled antibodies (the same lots of antibodies that were labeled by Cell Signaling and used for the imaging) according to the following protocol: array is immersed in 4 ml blocking solution (TBST containing 5% non-fat dried milk) for 4 hours at room temperature. Next, array is washed 3 times with TBST, and primary antibody is added (diluted in TBST 1:25,000). Antibody is incubated over night at 4° C. on a rotor. Then the array is washed 3 times in TBST and the secondary antibody (Active Motif, 100612) is added for 1 hour at room temperature. Array is washed again 3 times in TBST and the signal is detected by FlourChemQ.

[2] = tested on: recombinant unmodified nucleosomes; test: Single-molecule antibody binding to recombinant unmodified nucleosomes; conditions: monitored over time; FIG. 8A
Procedure: FIG. 8A-8B. Low background and high specificity of antibody binding. (A) Recombinant unmodified nucleosomes were prepared as previously described (91), and then ligated to biotinylated, fluorescent adaptors as in FIG. 1A. Binding of fluorescently-labeled H3K27me3 antibodies was monitored over time. […] For comparison, also shown are images of H3K27me3 antibody binding to nucleosomes prepared from HEK293 cells. (B) Western-blot analysis of labeled H3K27me3 peptide (TAMRA, green) bound by H3K27me3 antibodies (Alexa647, red). Fluorescent signal on membrane was visualized using a Typhoon trio+imager (Amersham Biosciences).
Applicants imaged millions of nucleosomes and decoded their modification state. Images are analyzed with Cell Profiler software. […] In contrast, when Applicants treated cells with histone deacetylase inhibitors (HDACi), the fraction of acetylated nucleosomes increased to 7% (FIG. 1C, 1D). Importantly, when Applicants repeated the analysis with recombinant unmodified nucleosomes, just 0.1% of nucleosomes scored (FIG. 1E, 8A). […]
as §1

## H3K27me3 antibody: Tri-Methyl-Histone H3 (Lys27) (C36B11) Rabbit mAb (Alexa Fluor 647 Conjugate), Cell Signaling #12158
Nucleosomes from ESCs
  time at which equilibrium of binding and dissociation of antibodies is achieved: 45 min
[1]
  reactivity with control peptides and singly modified peptides (target specificity): very high target specificity and low background
[2]
  binding events on recombinant unmodified nucleosomes: Very few binding events were detected
